Usually Ki stands for the dissociation constant of the complex between target and ligand, obtained from inhibition or displacement.

SMILES strings stand for the structures.

Data on 24 compounds can be found in US8222247B2, “Modulators of glucocorticoid receptor, AP-1, and/or NF-kappabeta activity and use thereof” (Bristol-Myers Squibb Company, priority 2006, dated 2012).

The target in the experiment is T1, human glucocorticoid receptor (Homo sapiens, UniProt P04150).
T1 construct: purified human recombinant full-length glucocorticoid receptor (2 nM); purchased Invitrogen Part #2893
T1 sequence (P04150 1-777): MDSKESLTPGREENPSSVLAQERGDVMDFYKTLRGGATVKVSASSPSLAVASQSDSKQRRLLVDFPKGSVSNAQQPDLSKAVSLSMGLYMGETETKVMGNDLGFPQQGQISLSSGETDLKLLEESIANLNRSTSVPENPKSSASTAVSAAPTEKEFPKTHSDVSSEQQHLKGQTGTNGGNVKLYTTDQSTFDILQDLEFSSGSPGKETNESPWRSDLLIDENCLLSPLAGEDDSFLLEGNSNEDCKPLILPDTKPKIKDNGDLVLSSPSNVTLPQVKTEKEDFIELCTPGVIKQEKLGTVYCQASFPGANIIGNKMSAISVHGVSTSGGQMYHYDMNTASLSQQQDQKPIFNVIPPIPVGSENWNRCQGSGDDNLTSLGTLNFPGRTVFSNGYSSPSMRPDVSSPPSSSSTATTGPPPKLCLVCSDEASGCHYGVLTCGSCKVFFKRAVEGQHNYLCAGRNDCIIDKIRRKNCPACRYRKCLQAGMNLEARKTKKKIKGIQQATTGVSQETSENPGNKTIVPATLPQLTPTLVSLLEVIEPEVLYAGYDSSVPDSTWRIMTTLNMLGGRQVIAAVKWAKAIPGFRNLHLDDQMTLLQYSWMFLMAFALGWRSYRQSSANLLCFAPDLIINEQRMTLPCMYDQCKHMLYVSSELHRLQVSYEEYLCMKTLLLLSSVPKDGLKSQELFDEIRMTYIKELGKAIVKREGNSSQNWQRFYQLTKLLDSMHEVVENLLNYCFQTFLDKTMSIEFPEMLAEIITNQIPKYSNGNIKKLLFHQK
The experiment can be described thus: Glucocorticoid Receptor Binding Assay (I), fluorescence polarization competitor kit. The conditions noted are these: purified human recombinant full-length GR, Fluormone GS Red. The method, then: Glucocorticoid Receptor Binding Assay (I)^a
In order to assess the affinity of test compounds for the human glucocorticoid receptor, a commercially available kit was used (Glucocorticoid Receptor Competitor Assay Kit, Invitrogen Part #2893). Briefly, purified human recombinant full-length glucocorticoid receptor (2 nM) was mixed with fluorescently labeled glucocorticoid (1 nM Fluormone GS Red) in the presence or absence of test compound. After two hour incubation at room temperature in the dark, the fluorescence polarization (FP) of the samples was measured. The FP of a mixture of receptor, fluorescent probe (i.e. Fluormone GS Red) and 5 μM dexamethasone represented background fluorescence or 100% inhibition, whereas, the FP of the mixture without dexamethasone (but in the presence of vehicle) was taken to be 100% binding. The percentage inhibition of test compounds were then compared to the sample with 5 μM dexamethasone and expressed as % relative binding activity with dexamethasone being 100% and no inhibition is 0%. Test compounds were analyzed in the concentration range from 8.5E-05 μM to 5 μM.
(In general: Polarisation of emitted light reports the rotation of a fluorescent probe.)
In the case of `CC(C)(C(=O)Nc1nncs1)[C@H](c1cccc(F)c1)c1ccc(-c2ccc(C(=O)O)c(F)c2)s1` [Example 63, 2-fluoro-4-(5-((1S)-1-(3-fluorophenyl)-2,2-dimethyl-3-oxo-3-(1,3,4-thiadiazol-2-ylamino)propyl)-2-thienyl)benzoic acid], the Ki is 565 nM.
On to `CCN(CC)C(=O)c1ccc(-c2ccc([C@H](c3cccc(F)c3)C(C)(C)C(=O)Nc3nncs3)s2)cc1` [Example 69, N,N-diethyl-4-(5-((1R)-1-(3-fluorophenyl)-2,2-dimethyl-3-oxo-3-(1,3,4-thiadiazol-2-ylamino)propyl)-2-thienyl)benzamide], for which the Ki was determined as 1.03 nM.
The figure for `CC(C)(C(=O)Nc1nncs1)[C@@H](c1cccc(F)c1)c1ccc(-c2ccc(C(=O)N3CCCCC3)cc2)s1` [Example 71, (3R)-3-(3-fluorophenyl)-2,2-dimethyl-3-(5-(4-(1-piperidinylcarbonyl)phenyl)-2-thienyl)-N-1,3,4-thiadiazol-2-ylpropanamide] is 1.51 nM; for `CCCN(CCC)C(=O)c1ccc(-c2ccc([C@H](c3cccc(F)c3)C(C)(C)C(=O)Nc3nncs3)s2)cc1` [Example 72, 4-(5-((1R)-1-(3-fluorophenyl)-2,2-dimethyl-3-oxo-3-(1,3,4-thiadiazol-2-ylamino)propyl)-2-thienyl)-N,N-dipropylbenzamide] it is 29.8 nM.
The figure for `CCNC(=O)c1ccc(-c2ccc([C@H](c3cccc(F)c3)C(C)(C)C(=O)Nc3nncs3)s2)cc1` [Example 73, N-ethyl-4-(5-((1R)-1-(3-fluorophenyl)-2,2-dimethyl-3-oxo-3-(1,3,4-thiadiazol-2-ylamino)propyl)-2-thienyl)benzamide] is 6.13 nM; for `CC(C)(C(=O)Nc1nncs1)[C@@H](c1cccc(F)c1)c1ccc(-c2ccc(C(N)=O)cc2)s1` [Example 74, 4-(5-((1R)-1-(3-fluorophenyl)-2,2-dimethyl-3-oxo-3-(1,3,4-thiadiazol-2-ylamino)propyl)-2-thienyl)benzamide] it is 2.24 nM; for `CNC(=O)c1ccc(-c2ccc([C@H](c3cccc(F)c3)C(C)(C)C(=O)Nc3nncs3)s2)cc1` [Example 75, 4-(5-((1R)-1-(3-fluorophenyl)-2,2-dimethyl-3-oxo-3-(1,3,4-thiadiazol-2-ylamino)propyl)-2-thienyl)-N-methylbenzamide] it is 1.52 nM.
Regarding `CC(C)(C)NC(=O)c1ccc(-c2ccc([C@H](c3cccc(F)c3)C(C)(C)C(=O)Nc3nncs3)s2)cc1` [Example 76, N-tert-butyl-4-(5-((1R)-1-(3-fluorophenyl)-2,2-dimethyl-3-oxo-3-(1,3,4-thiadiazol-2-ylamino)propyl)-2-thienyl)benzamide], the Ki stood at 27 nM.
`CC(C)(C(=O)Nc1nncs1)[C@@H](c1cccc(F)c1)c1ccc(-c2ccc(C(=O)NC3CC3)cc2)s1` [Example 77, N-cyclopropyl-4-(5-((1R)-1-(3-fluorophenyl)-2,2-dimethyl-3-oxo-3-(1,3,4-thiadiazol-2-ylamino)propyl)-2-thienyl)benzamide]: the Ki was 4.19 nM.
Under `CC(C)(C(=O)Nc1nncs1)[C@@H](c1cccc(F)c1)c1ccc(-c2ccc(C(=O)O)c(F)c2)s1` [Example 78, 2-fluoro-4-(5-((1R)-1-(3-fluorophenyl)-2,2-dimethyl-3-oxo-3-(1,3,4-thiadiazol-2-ylamino)propyl)-2-thienyl)benzoic acid] stands 24.5 nM; under `CC(C)(C(=O)Nc1nncs1)[C@@H](c1cccc(F)c1)c1ccc(-c2ccc(C(=O)N3CCC3)cc2)s1` [Example 81, (3R)-3-(5-(4-(1-azetidinylcarbonyl)phenyl)-2-thienyl)-3-(3-fluorophenyl)-2,2-dimethyl-N-1,3,4-thiadiazol-2-ylpropanamide], 4.32 nM.
Consider `CC(C)(C(=O)Nc1nncs1)[C@@H](c1cccc(F)c1)c1ccc(-c2ccc(C(=O)N3CCC3)c(F)c2)s1` [Example 82, (3R)-3-(5-(4-(1-azetidinylcarbonyl)-3-fluorophenyl)-2-thienyl)-3-(3-fluorophenyl)-2,2-dimethyl-N-1,3,4-thiadiazol-2-ylpropanamide], for which the Ki was found to be 2.66 nM.
In the case of `CN(C)C(=O)c1ccc(-c2ccc(C(c3cc(F)cc(F)c3)C(C)(C)C(=O)Nc3nncs3)s2)cc1Cl` (stereo not drawn) [Example 91, 2-chloro-4-(5-(1-(3,5-difluorophenyl)-2,2-dimethyl-3-oxo-3-(1,3,4-thiadiazol-2-ylamino)propyl)-2-thienyl)-N,N-dimethylbenzamide], the inhibition constant (Ki) was 4.59 nM.
Regarding `CCN(C)C(=O)c1ccc(-c2ccc(C(c3cc(F)cc(F)c3)C(C)(C)C(=O)Nc3nncs3)s2)cc1` (stereo not drawn) [Example 92, 4-(5-(1-(3,5-difluorophenyl)-2,2-dimethyl-3-oxo-3-(1,3,4-thiadiazol-2-ylamino)propyl)-2-thienyl)-N-ethyl-N-methylbenzamide], the Ki stood at 1.14 nM.
Turning to `C[C@H](C(=O)Nc1nncs1)[C@@H](c1cccc(F)c1)c1ccc(Br)s1` [Example 94, (2S,3S)-3-(5-bromo-2-thienyl)-3-(3-fluorophenyl)-2-methyl-N-1,3,4-thiadiazol-2-ylpropanamide], the Ki came to 4.11 nM.
As for `C[C@H](C(=O)Nc1nncs1)[C@H](c1cccc(F)c1)c1ccc(Br)s1` [Example 95, (2S,3R)-3-(5-bromo-2-thienyl)-3-(3-fluorophenyl)-2-methyl-N-1,3,4-thiadiazol-2-ylpropanamide], the Ki was determined as 0.76 nM.
On to `C[C@@H](C(=O)Nc1nncs1)[C@H](c1cccc(F)c1)c1ccc(Br)s1` [Example 97, (2R,3R)-3-(5-bromo-2-thienyl)-3-(3-fluorophenyl)-2-methyl-N-1,3,4-thiadiazol-2-ylpropanamide], for which the inhibition constant (Ki) is 1.96 nM.
The figure for `CCN(C)C(=O)c1ccc(-c2ccc([C@H](c3cccc(F)c3)[C@H](C)C(=O)Nc3nncs3)s2)cc1` [Example 106, N-ethyl-4-(5-((1S,2S)-1-(3-fluorophenyl)-2-methyl-3-oxo-3-(1,3,4-thiadiazol-2-ylamino)propyl)-2-thienyl)-N-methylbenzamide] is 2.44 nM; for `C[C@H](C(=O)Nc1nncs1)[C@@H](c1cccc(F)c1)c1ccc(-c2ccc(C(=O)N3CCOCC3)cc2)s1` [Example 108, (2S,3S)-3-(3-fluorophenyl)-2-methyl-3-(5-(4-(4-morpholinylcarbonyl)phenyl)-2-thienyl)-N-1,3,4-thiadiazol-2-ylpropanamide] it is 5.39 nM; for `C[C@@H](C(=O)Nc1nncs1)[C@H](c1cccc(F)c1)c1ccc(-c2ccc(C(=O)N3CCC3)c(F)c2)s1` [Example 122, (2R,3R)-3-(5-(4-(1-azetidinylcarbonyl)-3-fluorophenyl)-2-thienyl)-3-(3-fluorophenyl)-2-methyl-N-1,3,4-thiadiazol-2-ylpropanamide] it is 1.91 nM.
On to `C[C@H](C(=O)Nc1nncs1)[C@@H](c1cccc(F)c1)c1ccc(-c2ccc(C(=O)N(C)C)c(Cl)c2)s1` [Example 123, 2-chloro-4-(5-((1S,2S)-1-(3-fluorophenyl)-2-methyl-3-oxo-3-(1,3,4-thiadiazol-2-ylamino)propyl)-2-thienyl)-N,N-dimethylbenzamide], for which the Ki stood at 7.16 nM.
The figure for `C[C@H](C(=O)Nc1nncs1)[C@@H](c1cccc(F)c1)c1ccc(-c2ccc(C(=O)N3CCOCC3)c(Cl)c2)s1` [Example 124, (2S,3S)-3-(5-(3-chloro-4-(4-morpholinylcarbonyl)phenyl)-2-thienyl)-3-(3-fluorophenyl)-2-methyl-N-1,3,4-thiadiazol-2-ylpropanamide] is 7.27 nM.
The figure for `C[C@H](C(=O)Nc1nncs1)[C@@H](c1cccc(F)c1)c1ccc(-c2ccc(C(=O)N(C)C)cc2)s1` [Example 125, 4-(5-((1S,2S)-1-(3-fluorophenyl)-2-methyl-3-oxo-3-(1,3,4-thiadiazol-2-ylamino)propyl)-2-thienyl)-N,N-dimethylbenzamide] is 5.71 nM; for `C[C@H](C(=O)Nc1nncs1)[C@H](c1cccc(F)c1)c1ccc(-c2ccc(C(=O)N(C)C)c(Cl)c2)s1` [Example 126, 2-chloro-4-(5-((1R,2S)-1-(3-fluorophenyl)-2-methyl-3-oxo-3-(1,3,4-thiadiazol-2-ylamino)propyl)-2-thienyl)-N,N-dimethylbenzamide] it is 220 nM.
